Test results taken from patent US10131652B2, “Pyrimidinyloxy benzene derivatives as herbicides” (E. I. DU PONT DE NEMOURS AND COMPANY, priority 2014, dated 2018).
Where two headings read alike, the source gives them in different places.

Assays:
Type in all cases: in vivo
[1] = tested on: chickweed (common chickweed, Stellaria media); assay: Test D postemergence plant response; conditions: for pest or weed control at 16 g/ha / pest or weed control at 31 g/ha / pest or weed control at 62 g/ha / pest or weed control at 125 g/ha: Stellaria media, post-emergence; for pest or weed control at 16 g/ha / pest or weed control at 31 g/ha / Chickweed plant response rating: scale 0 to 100 (0 no effect, 100 complete control); for pest or weed control at 16 g/ha / pest or weed control at 31 g/ha: read-out: Chickweed plant response rating; for pest or weed control at 62 g/ha / pest or weed control at 125 g/ha / Plant response rating, Chickweed: scale 0 to 100, 0 no effect, 100 complete control; for pest or weed control at 62 g/ha / pest or weed control at 125 g/ha: read-out: Plant response rating, Chickweed
Outline: (§1)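 Visual 0–100 rating vs controls (0 = no effect, 100 = complete control), scored 13–15 d after postemergence spray. Plants 1- to 4-leaf stage (2–18 cm), potted in peat/vermiculite mix, kept in greenhouse.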

[2] = tested on: kochia (Kochia scoparia); assay: Test D postemergence plant response; conditions: for pest or weed control at 31 g/ha / pest or weed control at 62 g/ha / pest or weed control at 125 g/ha / pest or weed control at 16 g/ha: Bassia scoparia, post-emergence; for pest or weed control at 31 g/ha / pest or weed control at 16 g/ha / Kochia plant response rating: scale 0 to 100 (0 no effect, 100 complete control); for pest or weed control at 31 g/ha / pest or weed control at 16 g/ha: read-out: Kochia plant response rating; for pest or weed control at 62 g/ha / pest or weed control at 125 g/ha / Plant response rating, Kochia: scale 0 to 100, 0 no effect, 100 complete control; for pest or weed control at 62 g/ha / pest or weed control at 125 g/ha: read-out: Plant response rating, Kochia
Outline: as §1

[3] = tested on: wild oat (Avena fatua); assay: Test D postemergence plant response; conditions: for pest or weed control at 31 g/ha / pest or weed control at 62 g/ha / pest or weed control at 125 g/ha / pest or weed control at 16 g/ha: Avena fatua, post-emergence; for pest or weed control at 31 g/ha / pest or weed control at 16 g/ha / Oat, Wild plant response rating: scale 0 to 100 (0 no effect, 100 complete control); for pest or weed control at 31 g/ha / pest or weed control at 16 g/ha: read-out: Oat, Wild plant response rating; for pest or weed control at 62 g/ha / pest or weed control at 125 g/ha / Plant response rating, Oat, Wild: scale 0 to 100, 0 no effect, 100 complete control; for pest or weed control at 62 g/ha / pest or weed control at 125 g/ha: read-out: Plant response rating, Oat, Wild
Outline: as §1

[4] = tested on: galium (catchweed bedstraw, Galium aparine); assay: Test B postemergence plant response
Outline: (§2)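 Values are visual control ratings (0 to 100) recorded approximately 10 days after postemergence application to greenhouse-grown plants of 2 to 10 cm, one- to two-leaf stage, each judged against untreated controls.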

[5] = tested on: blackgrass (Alopecurus myosuroides); assay: Test B postemergence plant response
Outline: as §2

[6] = tested on: waterhemp_RES1 (ALS & Triazine resistant common waterhemp, Amaranthus rudis); assay: Test F postemergence plant response; conditions: scale 0 to 100
Procedure: (§3) At the same time, plants from these crop and weed species and also waterhemp_RES1, (ALS & Triazine resistant common waterhemp, Amaranthus rudis), and waterhemp_RES2, (ALS & HPPD resistant common waterhemp, Amaranthus rudis) were treated with postemergence applications of test chemicals formulated in the same manner. Plants ranged in height from 2 to 18 cm for postemergence treatments (1- to 4-leaf stage).
(§4) Treated plants and controls were maintained in a greenhouse for 14 to 21 days, after which time all species were compared to controls and visually evaluated. Plant response ratings, summarized in Table F, are based on a scale of 0 to 100 where 0 is no effect and 100 is complete control. A dash (-) response means no test result.

[7] = tested on: waterhemp_RES2 (ALS & HPPD resistant common waterhemp, Amaranthus rudis); assay: Test F postemergence plant response; conditions: scale 0 to 100
Procedure: as §3, §4

[8] = tested on: velvetleaf (Abutilon theophrasti); assay: Test B pre-/postemergence plant response; conditions: Abutilon theophrasti, 240 h, read-out: Plant response rating, Velvetleaf; for pest or weed control at 125 g/ha: 125 g ai/ha; for pest or weed control at 500 g/ha: 500 g ai/ha
Outline: (§5)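 Evaluation is visual, about 10 days after application, rating injury from 0 (none) to 100 (complete control) relative to untreated controls. Application was a preemergence soil spray on seeded pots or a postemergence spray on one- to two-leaf plants.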

[9] = tested on: morningglory (Ipomoea spp.); assay: Test B pre-/postemergence plant response; conditions: Ipomoea, 240 h, read-out: Plant response rating, Morningglory; for pest or weed control at 125 g/ha: 125 g ai/ha; for pest or weed control at 500 g/ha: 500 g ai/ha
Outline: as §5

[10] = tested on: large (Lg) crabgrass (Digitaria sanguinalis); assay: Test B pre-/postemergence plant response; conditions: Digitaria sanguinalis, 240 h, read-out: Plant response rating, Crabgrass, Large; for pest or weed control at 125 g/ha: 125 g ai/ha; for pest or weed control at 500 g/ha: 500 g ai/ha
Outline: as §5

[11] = 125 g ai/ha, postemergence, 0 to 100 scale, 0 no effect, 100 complete control
[12] = Postemergence, 31 g ai/ha, 0 to 100 scale (0 no effect, 100 complete control)
[13] = Postemergence, 1000 g ai/ha, 0 to 100 scale (0 no effect, 100 complete control)
[14] = 31 g ai/ha, Postemergence, 0 to 100 scale, 0 no effect, 100 complete control
[15] = post-emergence, postemergence, 0 to 100 scale, 0 no effect, 100 complete control
[16] = post-emergence, Postemergence, 0 to 100 scale (0 no effect, 100 complete control)
[17] = pre-emergence, Preemergence, 0 to 100 scale where 0 is no effect and 100 is complete control

Structure (SMILES) | pest or weed control at 16 g/ha ([1]; 16 g ai/ha) [%] | pest or weed control at 31 g/ha ([1]; 31 g ai/ha) [%] | pest or weed control at 62 g/ha ([1]; 62 g ai/ha) [%] | pest or weed control at 125 g/ha ([1]; 125 g ai/ha) [%] | pest or weed control at 31 g/ha ([2]; 31 g ai/ha) [%] | pest or weed control at 62 g/ha ([2]; 62 g ai/ha) [%] | pest or weed control at 125 g/ha ([2]; 125 g ai/ha) [%] | pest or weed control at 31 g/ha ([3]; 31 g ai/ha) [%] | pest or weed control at 62 g/ha ([3]; 62 g ai/ha) [%] | pest or weed control at 125 g/ha ([3]; 125 g ai/ha) [%] | Plant response rating, Galium [4, 11] | Plant response rating, Blackgrass [5, 11] | Plant response rating, Waterhemp_RES1 ([6]; 16 g ai/ha Postemergence) | Plant response rating, Waterhemp_RES1 ([6]; 31 g ai/ha Postemergence) | Plant response rating, Waterhemp_RES1 ([6]; 62 g ai/ha Postemergence) | Plant response rating, Waterhemp_RES1 ([6]; 125 g ai/ha Postemergence) | Plant response rating, Waterhemp_RES2 ([7]; 16 g ai/ha Postemergence) | Plant response rating, Waterhemp_RES2 ([7]; 31 g ai/ha Postemergence) | Plant response rating, Waterhemp_RES2 ([7]; 62 g ai/ha Postemergence) | Plant response rating, Waterhemp_RES2 ([7]; 125 g ai/ha Postemergence) | further results
Fc1cccc(Oc2ncc(Br)cn2)c1-c1cc(C(F)F)no1 [Compound 145, 5-bromo-2-[2-[3-(difluoromethyl)-5-isoxazolyl]-3-fluorophenoxy]pyrimidine] | 70 | 80 | 95 | 100 | 100 | 100 | 100 | 10 | 15 | 15 | 100 | 90 | 95 | 98 | 100 | 100 | 95 | 90 | 100 | 100 | Plant response rating, Galium [4, 12]: 100; Plant response rating, Blackgrass [5, 12]: 70
Fc1cccc(Oc2ncc(Cl)cn2)c1-c1cc(C(F)F)on1 [Compound 55, 5-chloro-2-[2-[5-(difluoromethyl)-3-isoxazolyl]-3-fluorophenoxy]pyrimidine] | 70 | 75 | 98 | 100 | 100 | 100 | 100 | 15 | 40 | 40 |  |  |  | 100 | 100 |  |  | 100 | 100 |  | pest or weed control at 16 g/ha ([2]; 16 g ai/ha): 98%; pest or weed control at 16 g/ha ([3]; 16 g ai/ha): 5%; Plant response rating, Galium [4, 13]: 100; Plant response rating, Blackgrass [5, 13]: 100
Fc1ccc(Oc2ncc(Cl)cn2)c(-c2cc(C(F)F)on2)c1Cl [Compound 96] |  |  |  |  |  |  |  |  |  |  | 100 | 70 | 85 | 90 | 95 | 95 | 85 | 90 | 90 | 95 | Chickweed plant response rating ([1]; 16 g ai/ha): 60; Chickweed plant response rating ([1]; 31 g ai/ha): 85; Plant response rating, Chickweed ([1]; 62 g ai/ha): 90; Plant response rating, Chickweed ([1]; 125 g ai/ha): 98; Kochia plant response rating ([2]; 16 g ai/ha): 25; Kochia plant response rating ([2]; 31 g ai/ha): 60; Plant response rating, Kochia ([2]; 62 g ai/ha): 85; Plant response rating, Kochia ([2]; 125 g ai/ha): 100; Oat, Wild plant response rating ([3]; 16 g ai/ha): 15; Oat, Wild plant response rating ([3]; 31 g ai/ha): 20; Plant response rating, Oat, Wild ([3]; 62 g ai/ha): 20; Plant response rating, Oat, Wild ([3]; 125 g ai/ha): 20; Plant response rating, Galium [4, 14]: 100; Plant response rating, Blackgrass [5, 14]: 10
Fc1cccc(Oc2ncc(Cl)cn2)c1-c1cc(C(F)F)no1 [Compound 144, 5-chloro-2-[2-[3-(difluoromethyl)-5-isoxazolyl]-3-fluorophenoxy]pyrimidine] | 70 | 80 | 95 | 95 | 100 | 100 | 100 | 0 | 5 | 10 | 100 | 90 | 90 | 95 | 100 | 100 | 98 | 100 | 100 | 100 | Plant response rating, Galium [4, 12]: 100; Plant response rating, Blackgrass [5, 12]: 80
FC(F)(F)c1cc(-c2ccccc2Oc2ncc(Cl)cn2)on1 [Compound 63, 5-chloro-2-[2-[3-(trifluoromethyl)-5-isoxazolyl]phenoxy]pyrimidine] | 60 | 65 | 98 | 100 | 95 | 98 | 100 | 20 | 25 | 35 |  |  |  |  |  |  |  |  |  |  | pest or weed control at 16 g/ha ([2]; 16 g ai/ha): 90%; pest or weed control at 16 g/ha ([3]; 16 g ai/ha): 0%; pest or weed control at 125 g/ha [8, 15]: 100%; pest or weed control at 500 g/ha [8, 16]: 100%; pest or weed control at 125 g/ha [8, 17]: 70%; pest or weed control at 500 g/ha [8, 17]: 90%; pest or weed control at 125 g/ha [9, 15]: 100%; pest or weed control at 500 g/ha [9, 16]: 100%; pest or weed control at 125 g/ha [9, 17]: 30%; pest or weed control at 500 g/ha [9, 17]: 60%; pest or weed control at 125 g/ha [10, 15]: 80%; pest or weed control at 500 g/ha [10, 16]: 90%; pest or weed control at 125 g/ha [10, 17]: 100%; pest or weed control at 500 g/ha [10, 17]: 100%
